Drawing on patent US9315494B2, “Alkyl-amide-substituted pyridyl compounds useful as modulators of IL-12, IL-23 and/or IFNα responses” (Bristol-Myers Squibb Company, priority 2012, dated 2016), this text covers IC50 for 23 compounds.

In experiment [1] the test system is IL-23-stimulated STAT-dependent luciferase reporter in Kit225 T cells. The experiment can be described thus: Kit225 T cell assay, IL-23 stimulated STAT-dependent luciferase reporter. The experiment is classed as cell-based, human. In short, it runs like this:
(§1)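 Kit225 T cells carrying a stably integrated STAT-luciferase reporter, in RPMI with 10% heat-inactivated FBS, were stimulated with 20 ng/mL IL-23 or 200 U/mL IFNα for 5-6 h. Readout was luminescence from the luciferase reporter.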

In experiment [2] the test system is IFNα-stimulated STAT-dependent luciferase reporter in Kit225 T cells. Nature of the experiment: Kit225 T cell assay, IFNα stimulated STAT-dependent luciferase reporter. It counts as cell-based, human. In short, it runs like this: as §1
Setting [3] is: Kit225 T cells, 20 ng/mL human recombinant IL-23, 5-6 hours, luciferase, read-out: IL23 (Kit225 T Cell Inhibition Data).
[4] abbreviates: Kit225 T cells, 200 U/mL human recombinant IFNα, 5-6 hours, luciferase, read-out: IFNα (Kit225 T Cell Inhibition Data).
Setting [5] is: Homo sapiens, KIT225, read-out: IL23 (Kit225 T Cell Inhibition Data).
Where [6] appears, read: Homo sapiens, KIT225, read-out: IFNα (Kit225 T Cell Inhibition Data).

Read-outs that look alike come from different tables or passages of the source.

For `CNC(=O)c1cnc(Nc2ccc(C(F)(F)F)cn2)cc1NC1CCCC1C(N)=O` (stereo not shown) [Example 291], the IC50 in experiment [1] (setting [3]) turned out to be 3730 nM; in experiment [2] (setting [4]) it was 3570 nM.
In the case of `CNC(=O)c1cnc(Nc2ccc3ccccc3n2)cc1NC1CCC(F)(F)CC1` [Example 292], the IC50 in experiment [1] (setting [3]) is 4720 nM; in experiment [2] (setting [4]), 5600 nM.
Taken in the same sequence, the figures for `CNC(=O)c1cnc(Nc2ccc3ccccc3n2)cc1NC1CCC(F)(F)CC1O` (stereo not shown) [Example 293] were 4780 nM and 11400 nM.
As for `CNC(=O)c1cnc(Nc2ccc3ccccc3n2)cc1NC1CCCC1(F)F` (stereo not shown) [Example 294], the figures for the IC50 in experiment [1] (setting [5]) and in experiment [2] (setting [6]) were 6350 nM and 4900 nM, respectively.
On to `CCNC(=O)c1cnc(Nc2ccc(F)cn2)cc1Nc1ccccc1C(N)=O` [Example 295], for which the IC50 in experiment [1] (setting [3]) worked out at 7300 nM; in experiment [2] (setting [4]), 3290 nM.
In the same order, the values of `CCNC(=O)c1cnc(Nc2ccc(F)cn2)cc1Nc1ccccc1OC` [Example 296] are 7160 nM and 2720 nM.
For the compound `CCNC(=O)c1cnc(Nc2ccc(F)cn2)cc1Nc1ccccc1S(C)(=O)=O` [Example 297], the results for the IC50 in experiment [1] (setting [3]) and in experiment [2] (setting [4]) were 250 nM and 600 nM, respectively.
In the case of `CNC(=O)c1cnc(Nc2ccccn2)cc1Nc1ccc(F)cc1S(C)(=O)=O` [Example 299], the IC50 was 270 nM in experiment [1] (setting [3]) and 90 nM in experiment [2] (setting [4]).
With `CNC(=O)c1cnc(Nc2cc(C)nc(C)n2)cc1Nc1ccccc1S(C)(=O)=O` [Example 300], the results for the IC50 in experiment [1] (setting [3]) and in experiment [2] (setting [4]) were 280 nM and 130 nM, respectively.
In the same order, the values of `CNC(=O)c1cnc(Nc2ccc(-n3cc(F)ccc3=O)cn2)cc1Nc1ccccc1S(C)(=O)=O` [Example 301] are 3160 nM and 1460 nM.
For the compound `CNC(=O)c1cnc(Nc2ccc(F)cn2)cc1Nc1ccc(C(N)=O)cc1S(C)(=O)=O` [Example 303], the IC50 is 2340 nM in experiment [1] (setting [3]) and 2650 nM in experiment [2] (setting [4]).
In the same order, the values of `CNC(=O)c1ccc(Nc2cc(Nc3ccc(F)cn3)ncc2C(=O)NC)c(S(C)(=O)=O)c1` [Example 304] are 1240 nM and 570 nM.
As for `CNC(=O)c1cnc(Nc2ccc(F)cn2)cc1Nc1ccc(C(=O)N2CCOCC2)cc1S(C)(=O)=O` [Example 305], the figures for the IC50 in experiment [1] (setting [3]) and in experiment [2] (setting [4]) were 2650 nM and 3110 nM, respectively.
For `CNC(=O)c1cnc(Nc2ccc(F)cn2)cc1Nc1ccc(C(=O)N(C)C)cc1S(C)(=O)=O` [Example 306], the IC50 in experiment [1] (setting [3]) stood at 2530 nM; in experiment [2] (setting [4]) it was 560 nM.
Regarding `CNC(=O)c1cnc(Nc2ccc(F)cn2)cc1Nc1ccc(C(=O)NC2CC2F)cc1S(C)(=O)=O` (stereo not shown) [Example 307], the figures for the IC50 in experiment [1] (setting [3]) and in experiment [2] (setting [4]) were 3740 nM and 1540 nM, respectively.
In the same order, the values of `CNC(=O)c1cnc(Nc2ccc(F)cn2)cc1Nc1ccc(C(=O)N2CC(F)(F)C2)cc1S(C)(=O)=O` [Example 308] are 1860 nM and 1160 nM.
With `CNC(=O)c1cnc(Nc2ccc(F)cn2)cc1Nc1ccc(C(=O)NC2CC2)cc1S(C)(=O)=O` [Example 309], the IC50 in experiment [1] (setting [3]) is 1920 nM; in experiment [2] (setting [4]), 630 nM.
With `CNC(=O)c1cnc(Nc2ccc(F)cn2)cc1Nc1ccc(C#N)cc1S(C)(=O)=O` [Example 310], the IC50 in experiment [1] (setting [5]) is 1080 nM; in experiment [2] (setting [6]) it was 590 nM.
For `CNC(=O)c1cnc(Nc2ccc(F)cn2)cc1Nc1ccc(-c2ncco2)cc1S(C)(=O)=O` [Example 311], the IC50 in experiment [1] (setting [3]) turned out to be 190 nM; in experiment [2] (setting [4]), 160 nM.
Taken in the same sequence, the figures for `CNC(=O)c1cnc(Nc2ccc(F)cn2)cc1Nc1ccc(-c2nnco2)cc1S(C)(=O)=O` [Example 312] were 590 nM and 1020 nM.
In the same order, the values of `CNC(=O)c1cnc(Nc2ccc(F)cn2)cc1Nc1cccnc1OC` [Example 313] are 1330 nM and 500 nM.
In the same order, the values of `CNC(=O)c1cnc(Nc2cc(C)nc(C)n2)cc1Nc1cccnc1OC` [Example 314] are 190 nM and 80 nM.
Consider `CNC(=O)c1cnc(Nc2ccc(F)cn2)cc1Nc1cccc(C(=O)NC)c1OC` [Example 316], for which the IC50 in experiment [1] (setting [3]) is 70 nM; in experiment [2] (setting [4]) it was 100 nM.
